Patent publication US4548938A, “5-H-1,3,4-thiadiazolo[3,2-a]pyrimidin-5-one compounds” (Janssen Pharmaceutica N.V., priority 1985, dated 1985)
Where a name gives a salt, the structure may show the parent alone. Read-outs that look alike come from different tables or passages of the source.

Key:
[1] = test system: compound 48/80-induced gastric lesions; test: gastric lesion test: lesions induced by compound 48/80; type: in vivo; conditions: Rattus norvegicus, read-out: gastric lesion test ED50
[2] = test system: compound 48/80-induced lethality; test: protection of rats from compound 48/80-induced lethality; type: in vivo, male Wistar rats; conditions: Rattus norvegicus, sc, 4 h, s.c., compound 48/80 0.5 mg/kg i.v. 1 hour after treatment, 50% protected against lethality, read-out: 48/80-test ED50
Excerpt: PROTECTION OF RATS FROM COMPOUND 48/80-INDUCED LETHALITY
Compound 48/80, a mixture of oligomers obtained by condensation of 4-methoxy-N-methyl-phenethylamine and formaldehyde has been described as a potent histamine releasing agent (Int. Arch. Allergy, 13, 336 (1958)). The protection from compound 48/80-induced lethal circulatory collapse appears to be a simple way of evaluating quantitatively the antihistaminic activity of test-compounds. Male rats of an inbred Wistar strain, weighing 240-260 g were used in the experiment. After overnight starvation the rats were transferred to conditioned laboratories (temp.=21±1° C., relative humidity=65±5%). The rats were treated subcutaneously or orally with a test compound or with the solvent (NaCl solution, 0.9%). One hour after treatment there was injected intravenously compound 48/80, freshly dissolved in water, at a dose of 0.5 mg/kg (0.2 ml/100 g of body weight). In control experiments, wherein 250 solvent-treated animals were injected with the standard dose of compound 48/80 not more than 2.8% of the animals survived after 4 hours, is therefore considered to be a safe criterion of a protective effect of drug administration.
In this connection the ED50 -values are the minimal doses of the concerned compounds, administered in the subcutaneous way, whereby 50% of the rats are protected against compound 48/80-induced lethality.

[3] = test system: apomorphine-induced phenomena: agitation and stereotypic chewing; test: apomorphine (APO) test in rats, part of the combined APO-TRY-NOR test; type: in vivo, male Wistar rats; conditions: Rattus norvegicus, sc, 0.5 h, read-out: ED50 (APO)-rat
[4] = test system: tryptamine-induced bilateral tonic seizures; test: tryptamine (TRY) test in rats, part of the combined APO-TRY-NOR test; type: in vivo, male Wistar rats; conditions: Rattus norvegicus, sc, 1.5 h, tryptamine 40 mg/kg i.v. at 90 min
[5] = test system: norepinephrine-induced mortality; test: norepinephrine (NOR) test in rats, part of the combined APO-TRY-NOR test; type: in vivo, male Wistar rats; conditions: Rattus norvegicus, sc, 2 h, norepinephrine 1.25 mg/kg i.v. at 120 min
Protocol: THE COMBINED APOMORPHINE (APO)-, TRYPTAMINE (TRY)- AND NOREPINEPHRINE (NOR) TEST IN RATS
The experimental animals used in this test were adult male Wistar rats (weight 240±10 g). After an overnight fast, the animals were treated subcutaneously (1 ml/100 g) with an aqueous solution of the compound under investigation (time=zero) and put in isolated observation cages. […] At the end of this 1 hour period (time=90 minutes) the same animals were injected intravenously with 40 mg/kg of tryptamine (TRY) and the presence of the typical tryptamine-induced bilateral tonic seizures was noted. Two hours after pretreatment (time=120 minutes) finally, the same animals were challenged with 1.25 mg/kg intravenously of norepinephrine (NOR) and possible mortality was looked for up to 60 minutes later.
The table 1 gives the ED50 -values of a number of the compounds under consideration. As used herein, the ED50 -value represents the dose which protects 50% of the animals from apomorphine-, tryptamine- or norepinephrine-induced phenomena.

[6] = test system: apomorphine-induced emesis; test: apomorphine test in dogs (APO-dog); type: in vivo; conditions: Canis lupus familiaris, sc; beagle dogs; apomorphine 0.31 mg/kg s.c. 1 hour after compound; protection from emesis
[7] = test system: serotonin-induced contraction of rat caudal artery; test: antagonistic activity on the effect of serotonin on the caudal artery of the rat; conditions: serotonin 40 ng/ml; minimal concentration reducing contraction amplitude to at least 50% of normal; 5 min
Protocol: ANTAGONISTIC ACTIVITY ON THE EFFECT OF SEROTONIN ON THE CAUDAL ARTERY OF THE RAT
Caudal arteries from fasted male rats (210-235 g) were used in the test. Two helical strips having a length of 5-6 cm and a width of 2 mm. were obtained from each artery and mounted vertically in a 100 ml organ bath containing an oxygenated Krebs-Henseleit solution. Submaximal contractions of the arterial strips were produced by adding single doses of serotonin (40 ng/ml) to the organ bath for 2 minutes with each time an interval of 10 minutes. The amplitude of the contraction was measured before and 5 minutes after adding the drug. After washing out, the agonist was added again three times in order to see whether the contraction was restored and normalized.

[8] = rats, compound 48/80, distension of the stomach completely absent in 50% of rats
[9] = s.c., rats, apomorphine 1.25 mg/kg i.v. 30 min after compound

Row | Compound | ED50 [1, 8] [mg/kg] | ED50 [2] [mg/kg] | ED50 [3, 9] [mg/kg] | ED50 [4] [mg/kg] | ED50 [5] [mg/kg] | ED50 [6] [mg/kg] | caudal artery rat ED50 [7] [ng/mL] | ED50 [3] [mg/kg] | ED50 [1] [mg/kg]
1 | Cc1nc2n(c(=O)c1CCN1CC[C@H](c3c[nH]c4ccccc34)[C@H](C)C1)CCS2 (relative stereo) [compound 23, cis-2,3-dihydro-6-[2-[4-(1H-indol-3-yl)-3-methyl-1-piperidinyl]ethyl]-7-methyl-5H-thiazolo[3,2-a]pyrimidin-5-one] | 2.5 | 2.5 | – | – | – | – | – | – | –
2 | Cc1nc2n(c(=O)c1CCN1CCC(C(=O)c3ccc(F)cc3)CC1)CCS2 [compound 1, 6-[2-[4-(4-fluorobenzoyl)-1-piperidinyl]ethyl]-2,3-dihydro-7-methyl-5H-thiazolo[3,2-a]pyrimidin-5-one] | 0.0005 | 0.63 | 0.31 | 0.16 | 0.63 | 0.03 | 0.32 | – | –
3 | Cc1nc2n(c(=O)c1CCN1CCC(C(=O)c3ccc(F)cc3)CC1)CCCS2 [compound 2, 7-[2-[4-(4-fluorobenzoyl)-1-piperidinyl]ethyl]3,4-dihydro-8-methyl-2H,6H-pyrimido[2,1-b][1,3]thiazin-6-one] | 0.01 | 0.16 | – | 0.63 | 1.25 | 0.03 | 0.32 | 0.31 | –
4 | Cc1nc2n(c(=O)c1CCN1CCC(c3c[nH]c4ccccc34)CC1)CCCS2 [compound 3, 3,4-dihydro-7-[2-[4-(1H-indol-3-yl)-1-piperidinyl]ethyl]-8-methyl-2H,6H-pyrimido[2,1-b][1,3]thiazin-6-one] | 0.02 | 0.04 | – | 0.63 | 1.25 | 0.015 | 0.32 | 0.63 | –
5 | Cc1nc2scc(C)n2c(=O)c1CCN1CCC(C(=O)c2ccc(F)cc2)CC1 [compound 4, 6-[2-[4-(4-fluorobenzoyl)-1-piperidinyl]ethyl]-3,7-dimethyl-5H-thiazolo[3,2-a]pyrimidin-5-one] | 0.01 | 0.31 | – | 0.005 | 1.25 | – | 0.32 | 0.16 | –
6 | Cc1nc2sccn2c(=O)c1CCN1CCC(C(=O)c2ccc(F)cc2)CC1 [compound 5, 6-[2-[4-(4-fluorobenzoyl)-1-piperidinyl]ethyl]-7-methyl-5H-thiazolo[3,2-a]pyrimidin-5-one] | 0.005 | 0.31 | 0.02 | 0.01 | 0.63 | 0.015 | 0.14 | – | –
7 | Cc1nc2sc3ccccc3n2c(=O)c1CCN1CCC(C(=O)c2ccc(F)cc2)CC1 [compound 6, 3-[2-[4-(4-fluorobenzoyl)-1-piperidinyl]ethyl]-2-methyl-4H-pyrimido[2,1-b]benzothiazol-4-one] | – | 0.16 | 5 | 0.02 | 0.31 | 1.8 | 0.14 | – | 0.08
8 | Cc1nn2c(=O)c(CCN3CCC(C(=O)c4ccc(F)cc4)CC3)c(C)nc2s1 [compound 7] | 0.0025 | 0.16 | – | 0.31 | 0.63 | 0.5 | 1.25 | 2.5 | –
9 | Cc1nc2sc3c(n2c(=O)c1CCN1CCC(C(=O)c2ccc(F)cc2)CC1)CCC3 [compound 8, 3-[2-[4-(4-fluorobenzoyl)-1-piperidinyl]ethyl]7,8-dihydro-2-methyl-4H,6H-cyclopenta[4,5]thiazolo[3,2-a]pyrimidin-4-one] | – | 0.31 | – | 0.31 | 0.63 | 0.25 | 0.32 | 1.25 | 0.04
10 | Cc1nc2sccn2c(=O)c1CCN1CCC(C)(C(=O)c2ccc(F)cc2)CC1 [compound 9, monohydrochloride] | 0.005 | 0.16 | – | 0.16 | 1.25 | 0.25 | 0.32 | 0.63 | –
11 | Cc1nc2sccn2c(=O)c1CCN1CCC(C(=O)c2ccc(F)cc2)(c2ccccc2)CC1 [compound 10, 6-[2-[4-(4-fuorobenzoyl)-4-phenyl-1-piperidinyl]ethyl]-7-methyl-5H-thiazolo-[3,2-a]pyrimidin-5-one] | 2.5 | – | – | – | – | – | – | – | –
12 | Cc1nc2scc(C)n2c(=O)c1CCN1CCC(c2c[nH]c3ccccc23)CC1 [compound 11, 6-[2-[4-(1H-indol-3-yl)-1-piperidinyl]ethyl]-3,7-dimethyl-5H-thiazolo[3,2-a]pyrimidin-5-one] | 0.0025 | 0.08 | 0.08 | 0.04 | 0.16 | 0.004 | 0.14 | – | –
13 | Cc1nc2sc3ccccc3n2c(=O)c1CCN1CCC(c2c[nH]c3ccccc23)CC1 [compound 13, 3-[2-[4-(1H-indol-3-yl)-1-piperidinyl]ethyl]-2-methyl-4H-pyrimido[2,1-b]benzothiazol-4-one] | 0.04 | 0.63 | – | 0.31 | 0.16 | – | 0.32 | 1.25 | –
14 | Cc1nn2c(=O)c(CCN3CCC(c4c[nH]c5ccccc45)CC3)c(C)nc2s1 [compound 14, 6-[2-[4-(1H-indol-3-yl)-1-piperidinyl]ethyl]-2,7-dimethyl-5H-1,3,4-thiadiazolo[3,2-a]pyrimidin-5-one] | 0.04 | 0.04 | 5 | 1.25 | 0.63 | – | 0.56 | – | –
15 | Cc1nc2n(c(=O)c1CCN1CCC(c3c[nH]c4ccccc34)CC1)CCS2 [compound 15, 2,3-dihydro-6-[2-[4-(1H-indol-3-yl)-1-piperidinyl]-ethyl]-7-methyl-5H-thiazolo[3,2-a]pyrimidin-5-one] | 0.04 | 0.02 | – | – | 1.25 | 0.008 | 0.31 | 1.25 | –
16 | Cc1nc2scc(C)n2c(=O)c1CCN1CCC(c2c[nH]c3ccc(F)cc23)CC1 [compound 20, 6-[2-[4-(5-fluoro-1H-indol-3-yl)-1-piperidinyl]ethyl]-3,7-dimethyl-5H-thiazolo[3,2-a]pyrimidin-5-one] | 0.31 | 0.63 | – | 0.63 | – | 0.12 | 0.31 | 1.25 | –
17 | Cc1nc2sccn2c(=O)c1CCN1CCC(c2c[nH]c3ccc(Cl)cc23)CC1 [compound 21, 6-[2-[4-(5-chloro-1H-indol-3-yl)-1-piperidinyl]ethyl]-7-methyl-5H-thiazolo[3,2-a]pyrimidin-5-one] | – | 2.5 | – | – | 1.25 | – | – | 0.63 | 1.25
18 | Cc1nc2sc(C)c(C)n2c(=O)c1CCN1CCC(C(=O)c2ccc(F)cc2)CC1 [compound 24, 6-[2-[4-(4-fluorobenzoyl)-1-piperidinyl]ethyl]-2,3,7-trimethyl-5H-thiazolo[3,2-a]pyrimidin-5-one] | 0.01 | 0.08 | 0.63 | 0.04 | 0.63 | 0.12 | – | – | –
